# Source: ChEMBL document CHEMBL1152382, “Synthesis of novel quinoxaline derivatives and its cytotoxic activities” (Bioorg Med Chem Lett, 2009)
# Assay: Cytotoxicity against human HeLaS3 cells after 48 hrs by MTT assay
# Type: functional, cell-based
# Settings: HeLa S3, 48 h
row,SMILES,IC50 [µM]
1,O=C1Nc2cccnc2N2CCCCC12 (stereo not given),> 30
2,O=C1Nc2cc(OC(F)(F)F)ccc2N2CCCCC12 (stereo not given),> 30
3,CCC(C)C1Nc2cc(Cl)ccc2NC1=O (stereo not given),17.2
4,CC(C)(C)C1Nc2ccccc2NC1=O (stereo not given),> 30
5,Cc1ccc2c(c1)N1CCCCC1C(=O)N2 (stereo not given),18.1
6,CC(C)C1Nc2ccccc2NC1=O (stereo not given),4.85
7,CC1(C)Nc2ccccc2NC1=O,> 30
8,O=C1Nc2ccccc2NC1Cc1ccccc1 (stereo not given),> 30
9,O=C1Nc2ccccc2NC12CCCCC2,> 30
10,O=C1Nc2ccccc2N2Cc3ccccc3CC12 (stereo not given),> 30
11,Cc1cnc2c(c1)N1CCCCC1C(=O)N2 (stereo not given),> 30
12,N#Cc1ccc2c(c1)N1CCCCC1C(=O)N2 (stereo not given),7.6
13,O=C1Nc2ccc(Cl)cc2N2CCCCC12 (stereo not given),4.96
14,O=C1Nc2cc([N+](=O)[O-])ccc2N2CCCCC12 (stereo not given),> 30
15,O=C1Nc2ccccc2N2CCCC12 (stereo not given),> 30
